Measurements taken from patent publication US20220411362A1, “DITERPENOID COMPOUNDS THAT ACT ON PROTEIN KINASE C (PKC)” (K-Gen, Inc., priority 2019, published 2022).

Columns and labels:
C1b domain of human PKCθ = molecular target: T1, C1b domain of human PKCθ (Homo sapiens, UniProt Q04759); experiment: Competitive 3H-PDBu binding to C1b domain of PKCθ
T1 construct: Genes encoding C1b domains of human PKCα, δ, ε, θ, and PKD1 (PKCμ) were synthesized; made in house; host or cells: E. coli BL21(DE3)
T1 sequence (Q04759 231-281 limits assumed): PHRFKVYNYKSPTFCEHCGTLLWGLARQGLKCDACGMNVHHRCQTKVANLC
Method: (§1) Compounds described in this disclosure were tested for binding affinity to C1b domain of PKC isoforms. Compound binding affinity to C1b domain of PKC isoforms was derived from competitive binding assay using radioactive tracer ^3H-PDBu and recombinant GST-C1b or full-length of human PKC proteins based on modified procedures from Methods in Molecular Biology, vol.
(§2) Genes encoding C1b domains of human PKCα, δ, ε, θ, and PKD1 (PKCμ) were synthesized and inserted into pGEX-2TK or pGEX-4T1 vectors for expression and production of GST-C1b proteins in E. coli BL21(DE3) via IPTG induction. The target proteins were purified by glutathione sepharose 4B and followed by ion exchange chromatography if needed to achieve purity >70%. Aliquots of the purified proteins were stored at −80 degree for binding assay (storage buffer: 20 mM Tris pH 8.0, 200 mM NaCl, 10% glycerol, 1 mM DTT).
(§3) The plate was incubated at 37° C. on a shaker at 300 rpm for 10 minutes and then put on ice for 20 minutes. […] The bottom of the filter plate was sealed and 50 μL of MicroScint-20 (PerkinElmer) cocktail was added to each well. ^3H-PDBu trapped in each well was counted using PerkinElmer MicroBeta2 Reader. Data were analyzed using GraphPad Prism5 with the model “log(inhibitor) vs. response-variable slope” to fit the IC50, and then IC50 was transformed to Ki using Cheng-Prusoff equation: Ki=IC50/(1+added radio ligand/Kd). Kd is the binding affinity of each protein preparation to ^3H-PDBu, determined experimentally.

[1] = test system: A549 non-small cell lung cancer cell line; experiment: Proliferation of A549 (CellTiter Glo); format: cell-based; conditions: Homo sapiens, A549, 96 h, read-out: IC50 μM (A549 Cell Line)
How it was run: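 A549 cells (K-Ras mutant) seeded 1,000/well, 24 h at 37° C, then treated with 3-fold serial dilutions (final DMSO ≤0.25%) for 96 h. Viability by CellTiter Glo luminescence; % inhibition vs DMSO-only Max, curve-fit to give IC50, relative IC50 and % top inhibition.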

[2] = test system: Panc2.13 (Pancreatic) cell line; experiment: Proliferation of Panc2.13; format: cell-based; conditions: for ratio of (IC50 of K01)/(IC50 of compound), Panc2.13: value in parenthesis; for IC50: read-out: IC50 in μM Panc2.13 (Pancreatic)
Method: (§4) The diterpenoid compounds were tested in A549, a non-small cell lung cancer cell line harboring a K-Ras activating mutation. Briefly, A549 cells at a density of 1,000 cells/well were seeded in 96-well plates and incubated at 37° C. for 24 hours. A series of different concentrations of compound stocks (500×) were prepared by 3-fold serial dilution in DMSO. These compounds were further diluted in culture media and then added to cells so that the final DMSO concentration was not exceeding 0.25%. After 96 hours of incubation, 50 μL of CellTiter Glo reagent (Promega) was added to each well and luminescence was measured after 10 minutes using EnVision (PerkinElmer). Luminescence from cells treated with DMSO alone was set as Max and % of inhibition was calculated as follows: Inhibition %=(Max−Sample value)/Max×100. Data was analyzed using XL-fit software (ID Business Solutions Ltd.) and IC50, relative IC50, and % of top inhibition was calculated. Some of the compounds in this disclosure were very potent in blocking proliferation of A549 lung cancer cells at low nM range. In addition, potency of inhibiting A549 proliferation correlated well with its binding affinity to PKCs for this series of compounds. In other words, higher affinity binders had stronger inhibitory effects on A549 proliferation. This further support the notion that activation, rather than inhibition, of certain PKC isoforms is required to block proliferation of cancer cells, some of which may harbor K-Ras mutations. This is in sharp contrast to previous literature and common belief that inhibition of PKC is necessary to block cancer cell growth (Kang, 2014, New Journal of Science, 2014:1-36). Data presented here is in agreement with recent findings that many loss-of-function but not gain-of-function mutations of PKC isoforms have been identified in many human cancers (Antal et al., 2015, Cell, 160:489-502).
(§5) The compounds in this disclosure were tested for their potency in blocking proliferation of a few other cancer cells lines, including K-Ras mutant pancreatic cell lines Panc2.13 and KP-4, leukemia cell line HL-60, and lymphoma cell lines Namalwa and Mino. Similar procedures as in Example 67 were followed. Initial cell numbers seeded in 96-well plates were different for different cell lines: 3000 cells/well for Panc2.13; 800-1000 cells/well for KP-4; 5000 cells/well for HL-60; 5000-10000 cells/well for Namalwa and Mino. A ratio ratio of (IC50 of K01)/(IC50 of compound) (data in parenthesis in Table 5) was used to normalize the compound potency from different assay batches to a common comparator […].

[3] = test system: HL-60 (Leukemia) cell line; experiment: Proliferation of HL-60; format: cell-based; conditions: for ratio of (IC50 of K01)/(IC50 of compound), HL-60: value in parenthesis; for IC50: Homo sapiens, HL-60, read-out: IC50 in μM HL-60 (Leukemia)
Method: as §4, §5

[4] = test system: Namalwa (Lymphoma) cell line; experiment: Proliferation of Namalwa; format: cell-based; conditions: for ratio of (IC50 of K01)/(IC50 of compound), Namalwa: value in parenthesis; for IC50: read-out: IC50 in μM Namalwa (Lymphoma)
Method: as §4, §5

[5] = test system: KP-4 (Pancreatic) cell line; experiment: Proliferation of KP-4; format: cell-based; conditions: Homo sapiens, KP-4, read-out: IC50 in μM KP-4 (Pancreatic)
Method: as §4, §5

C1b domain of human PKCα = molecular target: T2, C1b domain of human PKCα (Homo sapiens, UniProt P17252); experiment: biochemical; format: binding; conditions: 3H-PDBu competition; for Ki: Ki PKCα
T2 construct: Genes encoding C1b domains of human PKCα, δ, ε, θ, and PKD1 (PKCμ) were synthesized; made in house; host or cells: E. coli BL21(DE3)
How it was run: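 Competitive binding against 3H-PDBu tracer used recombinant GST-C1b fusion protein expressed in E. coli. Incubation ran 10 min at 37°C with shaking, then 20 min on ice, followed by filtration and scintillation counting of trapped 3H-PDBu. Affinity was derived using each protein preparation's experimentally determined Kd for 3H-PDBu.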

C1b domain of human PKCδ = molecular target: T3, C1b domain of human PKCδ (Homo sapiens, UniProt Q05655); experiment: Competitive 3H-PDBu binding to C1b domain of PKCδ; conditions: Ki PKCδ, 3H-PDBu competition
T3 construct: Genes encoding C1b domains of human PKCα, δ, ε, θ, and PKD1 (PKCμ) were synthesized; made in house; host or cells: E. coli BL21(DE3)
How it was run: (§6)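 First, the E. coli-produced human GST-C1b protein was mixed with compound and 3H-PDBu and shaken 10 min at 37° C. Next, the plate sat on ice 20 min before filtration and scintillation counting of bound tracer. Finally, IC50 fits were transformed into Ki values.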

C1b domain of human PKCε = molecular target: T4, C1b domain of human PKCε (Homo sapiens, UniProt Q02156); experiment: Competitive 3H-PDBu binding to C1b domain of PKCε
T4 construct: Genes encoding C1b domains of human PKCα, δ, ε, θ, and PKD1 (PKCμ) were synthesized; made in house; host or cells: E. coli BL21(DE3)
Method: as §1, §2, §3

[6] = test system: Mino (Lymphoma) cell line; experiment: Proliferation of Mino; format: cell-based; conditions: for IC50: Homo sapiens, MINO, read-out: IC50 in μM Mino (Lymphoma); for ratio of (IC50 of K01)/(IC50 of compound), Mino: value in parenthesis
Method: as §4, §5

[7] = molecular target: T5, C1b domain of human PKD1 (PKCμ) (Homo sapiens, UniProt Q15139); experiment: biochemical; format: binding
T5 construct: Genes encoding C1b domains of human PKCα, δ, ε, θ, and PKD1 (PKCμ) were synthesized; made in house; host or cells: E. coli BL21(DE3)
T5 sequence (Q15139 270-320 limits assumed): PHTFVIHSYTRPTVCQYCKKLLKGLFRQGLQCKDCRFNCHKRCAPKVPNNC
How it was run: as §6

T4 sequence (Q02156 242-292 limits assumed): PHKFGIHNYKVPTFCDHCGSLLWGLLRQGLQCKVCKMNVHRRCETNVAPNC
T3 sequence (Q05655 230-280 limits assumed): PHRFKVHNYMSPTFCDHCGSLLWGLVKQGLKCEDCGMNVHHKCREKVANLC

| SMILES | Ki (C1b domain of human PKCθ) [nM] | IC50 [1] [µM] | ratio of (IC50 of K01)/(IC50 of compound), Panc2.13 [2] | IC50 [2] [µM] | ratio of (IC50 of K01)/(IC50 of compound), HL-60 [3] | IC50 [3] [µM] | ratio of (IC50 of K01)/(IC50 of compound), Namalwa [4] | IC50 [4] [µM] | IC50 [5] [µM] | Ki (C1b domain of human PKCα) [nM] | Ki (C1b domain of human PKCδ) [nM] | Ki (C1b domain of human PKCε) [nM] | IC50 [6] [µM] | ratio of (IC50 of K01)/(IC50 of compound), Mino [6] | Ki [7] [nM] | Ki PKCα (C1b domain of human PKCα) |
| --- | --- | --- | --- | --- | --- | --- | --- | --- | --- | --- | --- | --- | --- | --- | --- | --- |
| CC1=C[C@H]2[C@@]3(O)[C@H](C)C[C@]4(OC(=O)[C@@H](N)CCc5ccccc5)[C@H]([C@@H]3C=C(CO)C[C@]2(O)C1=O)C4(C)C [Compound K101-C1318] | 1 to 30 | 0.1 to 0.2 | 4.28 | 0.2 to 0.6 | 3.21 | 0.1 to 0.2 | 0.93 | 0.06 to 0.1 | 0.1 to 0.2 | 100 to 200 | 5 to 10 | 30 to 60 | 0.01 to 0.03 | 3.18 | < 5 | – |
| CC1=C[C@H]2[C@@]3(O)[C@H](C)C[C@]4(OC(=O)CCCc5ccccc5)[C@H]([C@@H]3C=C(CO)C[C@]2(O)C1=O)C4(C)C [Compound K101-C1324] | < 5 | 0.01 to 0.03 | – | – | 32.7 | 0.01 to 0.03 | 8.63 | 0.001 to 0.01 | – | 100 to 200 | < 5 | < 5 | 0.001 to 0.01 | 37.5 | < 5 | – |
| CC/C=C\C/C=C\C/C=C\C/C=C\C/C=C\C/C=C\CCC(=O)O[C@@]12C[C@@H](C)[C@@]3(O)[C@@H](C=C(CO)C[C@]4(O)C(=O)C(C)=C[C@@H]34)[C@@H]1C2(C)C [Compound K101-C1333] | < 5 | 0.001 to 0.01 | 157 | 0.001 to 0.01 | 80 | 0.001 to 0.01 | 20.9 | 0.001 to 0.01 | 0.001 to 0.01 | – | < 5 | 1 to 30 | < 0.001 | 82.5 | < 5 | E (E=>60 nM and ≤10 nM) |
| CC1=C[C@H]2[C@@]3(O)[C@H](C)C[C@]4(OC(=O)[C@@H](N)Cc5ccc(C(F)(F)F)cc5)[C@H]([C@@H]3C=C(CO)C[C@]2(O)C1=O)C4(C)C [Compound K101-C1342] | – | 0.06 to 0.1 | 6.79 | 0.1 to 0.2 | 6.43 | 0.03 to 0.06 | 1.68 | 0.03 to 0.06 | 0.06 to 0.1 | 100 to 200 | 5 to 10 | – | 0.01 to 0.03 | 6.2 | < 5 | – |
| CC1=C[C@H]2[C@@]3(O)[C@H](C)C[C@]4(OC(=O)[C@H](N)C(C)(C)c5ccc(C(F)(F)F)cc5)[C@H]([C@@H]3C=C(CO)C[C@]2(O)C1=O)C4(C)C [Compound K101-C134901] | 1 to 30 | 0.2 to 0.6 | – | – | 2.75 | 0.1 to 0.2 | 0.49 | 0.1 to 0.2 | – | 200 to 400 | 1 to 30 | 1 to 30 | 0.01 to 0.03 | 3.88 | 5 to 10 | – |
| CC1=C[C@H]2[C@@]3(O)[C@H](C)C[C@]4(OC(=O)[C@@H](N)C(C)(C)c5ccc(C(F)(F)F)cc5)[C@H]([C@@H]3C=C(CO)C[C@]2(O)C1=O)C4(C)C [Compound K101-C134902] | 5 to 10 | 0.03 to 0.06 | – | – | 12 | 0.01 to 0.03 | 3.5 | 0.01 to 0.03 | – | 30 to 60 | < 5 | 1 to 30 | 0.001 to 0.01 | 15.7 | < 5 | – |
